US8618152B2, “Inhibitors of serine proteases, particularly HCV NS3-NS4A proteases” (Vertex Pharmaceuticals Incorporated, priority 2003, dated 2013)
*1 amine or outer side, *2 acyl side, *3 side chain or, on linkers, in order; H or OH if unused. Where a SMILES comes first, the peptide text is derived from it. [ ]: non-standard residue; d: D form. The star is where a group is joined. ξ: configuration not given here. Pro(trans-3-iPr) = CC(C)[C@H]1CCN[C@@H]1C(=O)O; Pro(3S-Et) = CC[C@H]1CCN[C@@H]1C(=O)O; Phe(2-Me) = Cc1ccccc1C[C@H](N)C(=O)O; Pyrazinecarbonyl = O=C(c1cnccn1)*; X1 = CCCC(N[*:1])C(=O)C(=O)[*:2]; Ile(3ξ) = CCC(C)[C@H](N)C(=O)O; aThr = C[C@H](O)[C@H](N)C(=O)O; Chg = N[C@H](C(=O)O)C1CCCCC1; Tle = CC(C)(C)[C@H](N)C(=O)O

Molecular target: HCV NS3-NS4A protease (tNS3 with KK4A) (Hepatitis C virus genotype 1a, UniProt P27958)
Sequence (P27958 1027-1208): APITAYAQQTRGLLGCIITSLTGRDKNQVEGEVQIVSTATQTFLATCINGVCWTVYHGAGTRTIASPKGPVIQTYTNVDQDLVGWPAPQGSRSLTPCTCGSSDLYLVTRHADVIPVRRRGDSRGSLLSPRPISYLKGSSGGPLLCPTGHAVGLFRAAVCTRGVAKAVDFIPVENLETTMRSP
Test: HCV Ki assay (HPLC microbore separation of 5AB substrate and products)
Assay type: biochemical
Conditions: 25 nM tNS3, 25 μM KK4A, 25 μM 5AB substrate, 20 min at 30 C; read-out: Ki
Description: HPLC Microbore Method for Separation of 5AB Substrate and Products
Substrate: NH2-Glu-Asp-Val-Val-(alpha)Abu-Cys-Ser-Met-Ser-Tyr-COOH
A stock solution of 20 mM 5AB (or concentration of your choice) was made in DMSO w/0.2M DTT. This was stored in aliquots at −20 C.
Buffer: 50 mM HEPES, pH 7.8; 20% glycerol; 100 mM NaCl
Total assay volume was 100 μL
The buffer, KK4A, DTT, and tNS3 were combined; distributed 78 μL each into wells of 96 well plate. This was incubated at 30 C for ˜5-10 min.
2.5 μL of appropriate concentration of test compound was dissolved in DMSO (DMSO only for control) and added to each well. This was incubated at room temperature for 15 min.
Initiated reaction by addition of 20 μL of 250 μM 5AB substrate (25 μM concentration is equivalent or slightly lower than the Km for 5AB).
Incubated for 20 min at 30 C.
Terminated reaction by addition of 25 μL of 10% TFA
Transferred 120 μL aliquots to HPLC vials
Separated SMSY product from substrate and KK4A by the following method:
Microbore Separation Method:
Instrumentation: Agilent 1100
Column thermostated chamber G1316A
Diode array detector G1315A
Solvent A=HPLC grade water+0.1% TFA
Solvent B=HPLC grade acetonitrile+0.1% TFA
Stop time: 17 min Post-run time: 10 min.

CCCC(NC(=O)[C@@H]1C(CC)CCN1C(=O)[C@@H](NC(=O)[C@@H](NC(=O)c1cnccn1)C(C)C)C(C)C)C(=O)C(=O)N[C@@H](Cc1ccccc1)C(=O)O (stereo partly shown) [Compound 5]
Ki: < 100 nM

CCCC(NC(=O)[C@@H]1[C@@H](C(=O)OC)CCN1C(=O)[C@@H](NC(=O)[C@@H](NC(=O)c1cnccn1)C(C)C)C(C)C)C(=O)C(=O)N[C@@H](Cc1ccccc1)C(=O)O (stereo partly shown) [Compound 15]
Ki: 100 to 500 nM

CCCC(NC(=O)[C@@H]1[C@@H](C(C)C)CCN1C(=O)[C@@H](NC(=O)[C@@H](NC(=O)c1cnccn1)C(C)C)C(C)C)C(=O)C(=O)N[C@@H](Cc1ccccc1)C(=O)O (stereo partly drawn) [Compound 16] (Pyrazinecarbonyl-VV[Pro(trans-3-iPr)][X1]F-OH)
Ki: 100 to 500 nM

C=C[C@H]1CCN(C(=O)[C@@H](NC(=O)[C@@H](NC(=O)c2cnccn2)C(C)C)C(C)C)[C@@H]1C(=O)NC(CCC)C(=O)C(=O)N[C@@H](Cc1ccccc1)C(=O)O (stereo partly shown) [Compound 19]
Ki: 100 to 500 nM

CCCC(NC(=O)[C@@H]1[C@@H](CC2CC2)CCN1C(=O)[C@@H](NC(=O)[C@@H](NC(=O)c1cnccn1)C(C)C)C(C)C)C(=O)C(=O)N[C@@H](Cc1ccccc1)C(=O)O (stereo partly shown) [Compound 20]
Ki: 100 to 500 nM

CCCC(NC(=O)[C@@H]1[C@@H](C)CCN1C(=O)[C@@H](NC(=O)[C@@H](NC(=O)c1cnccn1)C(C)C)C(C)C)C(=O)C(=O)N[C@@H](Cc1ccccc1)C(=O)O (stereo partly shown) [Compound 22]
Ki: 100 to 500 nM

CCCC(NC(=O)[C@@H]1[C@@H](CC)CCN1C(=O)[C@@H](NC(=O)[C@@H](NC(=O)c1cnccn1)C1CCCCC1)C(C)CC)C(=O)C(=O)NC1CC1 (stereo partly shown) [Compound 25]
Ki: 100 to 500 nM

CCCC(NC(=O)[C@@H]1[C@@H](CC)CCN1C(=O)[C@@H](NC(=O)[C@@H](NC(=O)c1cnccn1)C1CCCCC1)C(C)C)C(=O)C(=O)N[C@@H](Cc1ccccc1)C(=O)O (stereo partly drawn) [Compound 26] (Pyrazinecarbonyl-[Chg]V[Pro(3S-Et)][X1]F-OH)
Ki: < 100 nM

CCCC(NC(=O)[C@@H]1[C@@H](CC)CCN1C(=O)[C@@H](NC(=O)[C@H](Cc1ccccc1C)NC(=O)c1cnccn1)C(C)C)C(=O)C(=O)N[C@@H](Cc1ccccc1)C(=O)O (stereo partly drawn) [Compound 27] (Pyrazinecarbonyl-[Phe(2-Me)]V[Pro(3S-Et)][X1]F-OH)
Ki: < 100 nM

CCCC(NC(=O)[C@@H]1[C@@H](CC)CCN1C(=O)[C@@H](NC(=O)[C@H](CC(C)C)NC(=O)c1cnccn1)C(C)C)C(=O)C(=O)N[C@@H](Cc1ccccc1)C(=O)O (stereo partly drawn) [Compound 28] (Pyrazinecarbonyl-LV[Pro(3S-Et)][X1]F-OH)
Ki: < 100 nM

CCCC(NC(=O)[C@@H]1[C@@H](CC)CCN1C(=O)[C@@H](NC(=O)[C@@H](NC(=O)c1cnccn1)C1CCCCC1)C(C)CC)C(=O)C(=O)N[C@@H](Cc1ccccc1)C(=O)O (stereo partly drawn) [Compound 29] (Pyrazinecarbonyl-[Chg][Ile(3ξ)][Pro(3S-Et)][X1]F-OH)
Ki: < 100 nM

CCCC(NC(=O)[C@@H]1[C@@H](CC)CCN1C(=O)[C@@H](NC(=O)[C@@H](NC(=O)c1cnccn1)C(C)C)C(C)CC)C(=O)C(=O)N[C@@H](Cc1ccccc1)C(=O)O (stereo partly drawn) [Compound 30] (Pyrazinecarbonyl-V[Ile(3ξ)][Pro(3S-Et)][X1]F-OH)
Ki: 100 to 500 nM

CCCC(NC(=O)[C@@H]1[C@@H](CC)CCN1C(=O)[C@@H](NC(=O)[C@@H](NC(=O)c1cnccn1)C(C)C)C(C)(C)C)C(=O)C(=O)N[C@@H](Cc1ccccc1)C(=O)O (stereo partly drawn) [Compound 31] (Pyrazinecarbonyl-V[Tle][Pro(3S-Et)][X1]F-OH)
Ki: < 100 nM

CCCC(NC(=O)[C@@H]1[C@@H](CC)CCN1C(=O)[C@@H](NC(=O)[C@@H](NC(=O)c1cnccn1)C(C)C)C1CCCCC1)C(=O)C(=O)N[C@@H](Cc1ccccc1)C(=O)O (stereo partly drawn) [Compound 32] (Pyrazinecarbonyl-V[Chg][Pro(3S-Et)][X1]F-OH)
Ki: 100 to 500 nM

CCCC(NC(=O)[C@@H]1[C@@H](CC)CCN1C(=O)[C@@H](NC(=O)[C@@H](NC(=O)c1cnccn1)C(C)C)[C@H](C)OC)C(=O)C(=O)N[C@@H](Cc1ccccc1)C(=O)O (stereo partly drawn) [Compound 33] (Pyrazinecarbonyl-V[aThr](Me)[Pro(3S-Et)][X1]F-OH)
Ki: 100 to 500 nM

CCCC(NC(=O)[C@@H]1[C@@H](CC)CCN1C(=O)[C@@H](NC(=O)[C@@H](NC(=O)c1cnccn1)C(C)C)[C@@H](C)OC)C(=O)C(=O)N[C@@H](Cc1ccccc1)C(=O)O (stereo partly drawn) [Compound 35] (Pyrazinecarbonyl-VT(Me)[Pro(3S-Et)][X1]F-OH)
Ki: > 500 nM

CCCC(NC(=O)[C@@H]1[C@@H](CC)CCN1C(=O)[C@@H](NC(=O)[C@@H](NC(=O)c1cnccn1)C(C)C)[C@@H](C)OCC)C(=O)C(=O)N[C@@H](Cc1ccccc1)C(=O)O (stereo partly drawn) [Compound 36] (Pyrazinecarbonyl-VT(Et)[Pro(3S-Et)][X1]F-OH)
Ki: 100 to 500 nM

CCCC(NC(=O)[C@@H]1[C@@H](CC)CCN1C(=O)[C@@H](NC(=O)[C@@H](NC(=O)c1cnccn1)C1CCCCC1)C1CCCCC1)C(=O)C(=O)N[C@@H](Cc1ccccc1)C(=O)O (stereo partly drawn) [Compound 42] (Pyrazinecarbonyl-[Chg][Chg][Pro(3S-Et)][X1]F-OH)
Ki: < 100 nM

CCCC(NC(=O)[C@@H]1[C@@H](CC)CCN1C(=O)[C@@H](NC(=O)[C@@H](NC(=O)c1cnccn1)C1CCCCC1)C(C)C)C(=O)C(=O)N[C@@H](C)c1ccccc1 (stereo partly shown) [Compound 43]
Ki: 100 to 500 nM

CCCC(NC(=O)[C@@H]1[C@@H](CC)CCN1C(=O)[C@@H](NC(=O)[C@@H](NC(=O)c1cnccn1)C1CCCCC1)C(C)C)C(=O)C(=O)NC1CC1 (stereo partly shown) [Compound 45]
Ki: > 500 nM

CCCC(NC(=O)[C@@H]1[C@@H](CC)CCN1C(=O)[C@@H](NC(=O)[C@@H](NC(=O)c1cnccn1)C1CCCCC1)C1CCCCC1)C(=O)C(=O)NC1CC1 (stereo partly shown) [Compound 46]
Ki: 100 to 500 nM

CCCC(NC(=O)[C@@H]1[C@@H](CC)CCN1C(=O)[C@@H](NC(=O)[C@@H](NC(=O)c1cnccn1)C1CCCCC1)C1CCCCC1)C(=O)C(=O)N[C@@H](C)c1ccccc1 (stereo partly shown) [Compound 50]
Ki: 100 to 500 nM

CCCC(NC(=O)[C@@H]1[C@@H](CC)CCN1C(=O)[C@@H](NC(=O)[C@@H](NC(=O)c1cnccn1)C1CCCCC1)C(C)CC)C(=O)C(=O)N[C@@H](C)c1ccccc1 (stereo partly shown) [Compound 51]
Ki: 100 to 500 nM

CCCC(NC(=O)[C@@H]1[C@@H](CC)CCN1C(=O)[C@@H](NC(=O)[C@@H](NC(=O)c1ncc[nH]1)C1CCCCC1)C(C)C)C(=O)C(=O)NC1CC1 (stereo partly shown) [Compound 53]
Ki: 100 to 500 nM

CCCC(NC(=O)[C@@H]1[C@@H](C(C)CC)CCN1C(=O)[C@@H](NC(=O)[C@@H](NC(=O)c1cnccn1)C(C)C)C(C)C)C(=O)C(=O)N[C@@H](Cc1ccccc1)C(=O)O (stereo partly shown) [Compound 57]
Ki: < 100 nM
